# In paper PMC5451161 (Tetrahedron, asymmetry, 2016):
# Molecular target: NDM-1 (New Delhi metallo-β-Lactamase) (Klebsiella pneumoniae, UniProt C7C422)
# Type: biochemical
# NDM-1 (New Delhi metallo-β-Lactamase), sequence (C7C422 29-270 limits assumed): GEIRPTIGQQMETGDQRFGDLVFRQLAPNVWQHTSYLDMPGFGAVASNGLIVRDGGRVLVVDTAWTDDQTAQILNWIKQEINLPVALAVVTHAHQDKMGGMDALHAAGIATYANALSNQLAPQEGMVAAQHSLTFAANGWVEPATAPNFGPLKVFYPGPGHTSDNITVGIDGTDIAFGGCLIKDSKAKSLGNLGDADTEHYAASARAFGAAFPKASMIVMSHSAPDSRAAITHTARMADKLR
compound,measurement,value
COC(=O)[C@@H]1COC2CSC(CS)N21 (stereo partly shown) [4f],Ki,1600 ± 600 nM
